Laboratory results published in patent publication US20230305023A1, “METHODS OF TREATMENT AND DIAGNOSTIC OF PATHOLOGICAL CONDITIONS ASSOCIATED WITH INTENSE STRESS” (INSERM (INSTITUT NATIONAL DE LA SANTÉ ET DE LA RECHERCHE …, priority 2020, published 2023).
Entries after “also recorded” stand apart in the source; their conditions may differ.

Experiments:
[1] = cited from earlier work
rats = conditions: cited from earlier work
[2] = system: TGF-B1-induced lung fibrosis; conditions: in vivo; cited from earlier work
nonhuman primates = conditions: cited from earlier work
PAI-1 = PAI-1 (Homo sapiens, UniProt P05121); conditions: dual mechanism of action; cited from earlier work
PAI-1, sequence (P05121 24-402, species assumed): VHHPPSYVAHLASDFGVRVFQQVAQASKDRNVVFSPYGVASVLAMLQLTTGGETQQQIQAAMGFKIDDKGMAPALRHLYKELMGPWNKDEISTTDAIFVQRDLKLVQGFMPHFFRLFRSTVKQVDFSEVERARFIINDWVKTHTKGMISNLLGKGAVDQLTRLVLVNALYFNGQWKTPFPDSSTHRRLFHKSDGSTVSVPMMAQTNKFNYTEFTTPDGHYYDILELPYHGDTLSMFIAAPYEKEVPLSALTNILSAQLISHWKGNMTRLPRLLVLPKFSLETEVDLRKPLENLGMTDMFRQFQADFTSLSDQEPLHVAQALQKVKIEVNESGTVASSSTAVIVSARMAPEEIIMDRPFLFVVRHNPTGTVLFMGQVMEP

mouse PAI-1 = target: T1, mouse PAI-1 (Mus musculus, UniProt P22777); conditions: cited from earlier work
T1 sequence (P22777 23-402): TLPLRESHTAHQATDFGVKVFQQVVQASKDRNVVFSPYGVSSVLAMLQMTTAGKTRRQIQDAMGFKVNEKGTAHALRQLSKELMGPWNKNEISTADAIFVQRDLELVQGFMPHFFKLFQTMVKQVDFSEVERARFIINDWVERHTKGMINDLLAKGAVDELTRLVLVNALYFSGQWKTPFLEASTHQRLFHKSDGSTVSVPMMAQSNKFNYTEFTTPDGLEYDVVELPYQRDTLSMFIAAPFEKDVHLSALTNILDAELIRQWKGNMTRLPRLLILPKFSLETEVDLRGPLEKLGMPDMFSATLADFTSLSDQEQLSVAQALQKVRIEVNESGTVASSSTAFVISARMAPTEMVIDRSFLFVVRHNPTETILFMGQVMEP

rat PAI-1 = target: T2, rat PAI-1 (Rattus norvegicus, UniProt P20961); conditions: cited from earlier work
T2 sequence (P20961 24-402): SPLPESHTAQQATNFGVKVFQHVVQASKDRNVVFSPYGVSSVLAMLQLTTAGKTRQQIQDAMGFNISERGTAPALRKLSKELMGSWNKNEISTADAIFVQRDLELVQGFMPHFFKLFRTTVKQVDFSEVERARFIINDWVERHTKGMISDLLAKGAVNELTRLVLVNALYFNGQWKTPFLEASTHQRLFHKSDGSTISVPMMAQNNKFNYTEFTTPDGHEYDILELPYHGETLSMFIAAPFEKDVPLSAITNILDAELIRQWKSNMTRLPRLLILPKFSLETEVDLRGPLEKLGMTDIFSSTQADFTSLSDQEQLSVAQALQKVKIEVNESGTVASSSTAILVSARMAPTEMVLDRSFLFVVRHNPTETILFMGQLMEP

rat [3] = conditions: in vivo; cited from earlier work
rat [4] = conditions: cited from earlier work
[5] = in vivo; cited from earlier work
C57BL/6J mice = experiment: Adaptive vs maladaptive (PTSD-like) fear memory, fear conditioning procedure; type: in vivo
Excerpt: Surgical procedure. Male C57BL/6J mice {n=20 in Experiment 1 (FIGS. 3a-d), n=75 in Experiment 2 (FIG. 4), n=40 in Experiment 3 (FIGS. 5a-d) and n=48 in Experiment 4 (FIGS. 5e-h)} 3-4 months old (Charles River Laboratory, France) were used. Mice were surgically-implanted bilaterally 1 mm above the dorsal hippocampus (A/P, -2 mm; M/L, ±1.3 mm; D/V, 0.9 mm; relative to dura and bregma) following to Franklin and Paxinos’s mouse brain atlas (25) then allowed to recover for 8 days before the behavioral experiments.
Adaptive vs maladaptive (PTSD-like) fear memory. […] In contrast, Cort-injected mice will display a maladaptive (PTSD-like) memory attested by an abnormally high fear response to the irrelevant tone (cue-based hypermnesia) together with a decreased conditioned fear to the conditioning context (contextual amnesia) (5). • Memory tests - After fear conditioning, each animal was returned to its home cage and 24 h later, all mice were submitted to two memory tests during which freezing behavior, defined as a lack of any movement except for respiratory-related movements (29), was measured and used as an index of conditioned fear.
Drug injections. Immediately after the acquisition of fear conditioning, mice were randomly divided into groups firstly according to first their systemic injection of Cort and secondly their specific intra-hippocampal infusion. […] Vehicle (NaCl 0.9%, n=8), 2. […] Vehicles (aCSF + NaCl 0.9%, n=15), 2. […] Vehicles (aCSF + NaCl 0.9%, n=8), 2. […] Vehicles (aCSF + DMSO, n=12), 2.
PAI-1 and BDNF were diluted in artificial CSF (aCSF) and Tiplaxtinin in 1.6 % dimethyl sulfoxide (DMSO) and then diluted in aCSF. Bilateral infusions of 0.3 µl/side were administered into the dorsal hippocampus immediately after acquisition of fear conditioning at a constant rate (0.1 µl/min).

[6] = system: dorsal hippocampal slices; experiment: Protein expression in dorsal hippocampal slices incubated with corticosterone (western blot); type: cell-based, Sprague-Dawley rats
Description: Briefly, adult male Sprague-Dawley rats (2-3 months old n=18, Charles River Laboratory, France) were used. Rats were then anesthetized with isoflurane and transcardially perfused with nearly frozen modified artificial cerebrospinal fluid (CSF) with 3 mM kynurenic acid. The modified CSF for perfusion contained: (in mM) 87 NaCl, 75 Sucrose, 25 Glucose, 5 KCl, 21 MgCl2, 0.5 CaCl2 and 1.25 NaH2PO4. After perfusion, the brains were quickly removed and sliced (300 µm) in the coronal plane using a vibratome (Campden Instruments, UK). Immediately after cutting, slices were stored for 40 min at 32° C. in CSF ((in mM): 130 NaCl, 11 Glucose, 2.5 KCl, 2.4 MgCl2, 1.2 CaCl2, 23 NaHCO3, 1.2 NaH2PO4), equilibrated with 95% O2 / 5% CO2 then stored at room temperature for the rest of the experiment. […] Dorsal hippocampi were isolated, and proteins were extracted as previously described (14;16).
Protein extraction from brain tissues and immunoblotting analysis. A detailed description of protein extraction and immunoblotting analysis has been reported previously (14-16;20;21). Briefly, protein sample extracts from PC12 cells and mouse and rat hippocampi were performed in RIPA buffer containing protease and phosphatase inhibitors (#P8340 and #P0044, Sigma, USA) before being subjected to immunoblotting experiments. […] Rabbit polyclonal anti-PAI-1 antibodies were from Lifespan Biosciences (LSBio#C81062, 1/1000, WA, USA) and Epitomics (#3917-1, 1/3000, CA, USA), anti-tPA (#T5600-05G; 1/5000) was from US Biologicals (MA, USA), anti-Erk1/2^MAPK (#06-182; 1/50000) was from Millipore (MA, USA), anti-Phospho-Erk1/2^MAPK (#9101S; 1/1000) was from CST (MA, USA). Rabbit monoclonal antibodies anti-Phospho-Erk1/2^MAPK (#4370; 1/5000) was from CST (MA, USA), anti-Phospho-TrkB (#2149-1; 1/5000) was from Epitomics (CA, USA), anti-TrkB (#610101; 1/2000) was from BD Biosciences (NJ, USA). Mouse monoclonal anti-Neuronal Class III β-Tubulin (TUJ1) (#MMS-435P; 1/20000) was from Eurogentec (Belgium), anti-α-tubulin (#N356, 1/50000) was from Amersham Life Sciences (Del, USA). CST provided secondary antibodies: anti-rabbit IgG, HRP-linked antibody (#7074, 1/5000) and anti-mouse IgG, HRP-linked antibody (#7076, 1/20000). In all experiments, βIII-tubulin or α-tubulin measures were used as a loading control. X-Ray films (Kodak, USA) were quantified by densitometry (optical density; OD) using a GS-800 scanner coupled with Quantity One software (Bio-Rad, CA, USA).

PC12 cells = experiment: PAI-1 expression in PC12 cells treated with corticosterone (qPCR, western blot); type: cell-based, rat; conditions: Cort 100 and 1000 nM, 3 h
Description: Chemicals. […] Millipore (USA) provided the recombinant human BDNF (CAS Nb 218441-99-7, #GF029, 100 ng/side) and tPA inhibitor; stable recombinant mutant of human Type 1 Plasminogen Activator Inhibitor (PAI-1; CAS Nb: 140208-23-7, #528208, ranging from 30 to 240 ng/side) (16;18). The small-molecule inhibitor of PAI-1 activity Tiplaxtinin (PAI-039; CAS Nb: 393105-53-8, #1383, 5 ng/side) was provided by Axon MEDCHEM (The Netherlands).
Cell culture. PC12 cell line (ATCC CRL-1721) derived from a transplantable rat pheochromocytoma was used (14;16). […]
Quantitative PCR analysis. […] RNA was processed and analyzed using an adapted version of published methods (23). cDNA was synthesized from 2 µg of total RNA using RevertAid Premium Reverse Transcriptase (Fermentas, Thermo Fisher Scientific, USA) and primed with oligo-dT primers (Fermentas, Thermo Fisher Scientific, USA) and random primers (Fermentas, Thermo Fisher Scientific, USA). qPCR was perfomed using a LightCycler® 480 Real-Time PCR System (Roche, Meylan, France). qPCR reactions were done in duplicate for each sample, using transcript-specific primers, cDNA (4 ng) and LightCycler 480 SYBR Green I Master (Roche) in a final volume of 10 µl. The PCR data were exported and analyzed in a computer-based tool (Gene Expression Analysis Software Environment) developed at the Neurocentre Magendie (France). […]

[7] = system: plasminogen activator inhibitor type 1 (PAI-1); conditions: in vivo; cited from earlier work

O=C(COCC(=O)N1CCN(C(c2ccccc2)c2ccccc2)CC1)Nc1ccc(Cl)cc1C(=O)[O-].[Na+] [TM5275]
oral pharmacokinetic profile [1]: improved oral pharmacokinetic properties | antithrombotic ability (rats): effective antithrombotic ability | TGF-B1-induced lung fibrosis [2]: blocks | antithrombotic ability (nonhuman primates): effective antithrombotic ability

CCCCCc1c(-c2ccc3cc(OCc4nnn[nH]4)ccc3c2)n(Cc2ccccc2)c2ccccc12 [PAI-749, 1-benzyl-3-pentyl-2[-(1H-tetrazol-5-ylmethoxy)naphthalene-2-yl]-1Hindole]
PAI-1 activity (PAI-1): neutralize PAI-1 activity

O=C1S/C(=C\c2cc(O)c(O)c(O)c2)C(=O)N1Cc1ccc(Cl)c(Cl)c1 [IMD-1622, 3-(3,4-dichlorobenzyl)-5-(3,4,5-trihydroxy-benzylidene)-thiazolidine-2,4-dione]
activity of mouse PAI-1 (mouse PAI-1): inhibit | activity of rat PAI-1 (rat PAI-1): inhibit | rat autoimmune myocarditis (rat [3]): suppresses | thrombus weight (rat [4]; compared to control): decreased | intimal thickening (rat [4]; rat, in vivo): suppressed

COc1ccc(C(CN(C)C)C2(O)CCCCC2)cc1 (stereo not drawn) [venlafaxine]
benefit in PTSD over placebo [5]: small to modest benefit

C[C@]12C[C@H](O)[C@H]3[C@@H](CCC4=CC(=O)CC[C@@]43C)[C@@H]1CC[C@@H]2C(=O)CO [Cort, corticosterone]
PTSD-like memory impairments (C57BL/6J mice; Cort 2 mg/kg i.p. immediately after conditioning): PTSD-like memory impairments appeared | tPA, P-TrkB and P-Erk1/2MAPK proteins ([6]; Cort 10 nM, 1 h after treatment): increase | PAI-1 protein ([6]; Cort 10 nM, 3 h after treatment): increase | PAI-1 protein ([6]; Cort 1000 nM, 1 h after treatment): early increase | tPA, P-TrkB and P-Erk1/2MAPK proteins ([6]; Cort 1000 nM, after 3 h treatment): suppression of the increase | expression of PAI-1 mRNA (PC12 cells; qPCR): strongly increased | expression of PAI-1 protein (PC12 cells; western blot): strongly increased

Fc1ccc([C@@H]2CCNC[C@H]2COc2ccc3c(c2)OCO3)cc1 [paroxetine]
benefit in PTSD over placebo [5]: small to modest benefit

CNCCC(Oc1ccc(C(F)(F)F)cc1)c1ccccc1 (stereo not drawn) [fluoxetine]
benefit in PTSD over placebo [5]: small to modest benefit

O=C(CCCCC(=O)Nc1scc(-c2cccs2)c1C(=O)O)Nc1scc(-c2cccs2)c1C(=O)O [TM5007]
oral pharmacokinetic profile [1]: not ideal

Defibrotide
circulating levels of plasminogen activator inhibitor type 1 (PAI-1) [7]: reduces

O=C(O)C(=O)c1cn(Cc2ccccc2)c2ccc(-c3ccc(OC(F)(F)F)cc3)cc12 [Tiplaxtinin, 1H-indole-3-acetic acid, a-oxo-1-(phenylmethyl)-5-(4-trifluoromethoxyphenyl)]
appearance of PTSD-like memory in Cort-treated animals (C57BL/6J mice; Tiplaxtinin 5 ng/side intra-hippocampal immediately after conditioning, Cort 2 mg/kg i.p., freezing tested 24 h later): prevented the appearance of PTSD-like memory; also recorded: normalizes traumatic memory

B1: mature BDNF: recombinant human BDNF, CAS 218441-99-7 (protein, UniProt P23560 19-247, looked up)
Neurotrophic factor BDNF …: APMKEANIRGQGGLAYPGVRTHGTLESVNGPKAGSRGLTSLADTFEHVIEELLDEDQKVRPNEENNKDADLYTSRVMLSSQVPLEPPLLFLLEEYKNYLDAANMSMRVRRHSDPARRGELSVCDSISEWVTAADKKTAVDMSGGTVTVLEKVPVSKGQLKQYFYETKCNPMGYTKEGCRGIDKRHWNSQCRTTQSYVRALTMDSKKRIGWRFIRIDTSCVCTLTIKRGR
reversal of the effect of PAI-1 on fear memory (C57BL/6J mice; mature BDNF 100 ng/side concomitant with PAI-1 240 ng/side, intra-hippocampal): completely reversed
